Laboratory results from patent US10774080B2, “Pyrimidine compound as JAK kinase inhibitor” (THERAVANCE BIOPHARMA R&D IP, LLC, priority 2017, dated 2020).

Key:
JAK1 = biological target: T1, JAK1 (Homo sapiens, UniProt P23458); experiment: Biochemical JAK kinase assay (LanthaScreen), JAK1; settings: converted from pIC50 by Cheng-Prusoff; ATP at Km 25 μM; read-out: JAK 1 (pKi) (converted)
T1 construct: GST; purchased Life Technologies
Description: (§1) Assay 1: Biochemical JAK and Tyk2 Kinase Assays A panel of four LanthaScreen JAK biochemical assays (JAK1, 2, 3 and Tyk2) were carried in a common kinase reaction buffer (50 mM HEPES, pH 7.5, 0.01% Brij-35, 10 mM MgCl2, and 1 mM EGTA). Recombinant GST-tagged JAK enzymes and a GFP-tagged STAT1 peptide substrate were obtained from Life Technologies. Serially or discretely diluted compounds were pre-incubated with each of the four JAK enzymes and the substrate in white 384-well microplates (Corning) at ambient temperature for 1 h. ATP was subsequently added to initiate the kinase reactions in 10 μL total volume, with 1% DMSO. […] The plates were allowed to incubate at ambient temperature for 1 h before being read on the EnVision reader (Perkin Elmer). Emission ratio signals (520 nm/495 nm) were recorded and utilized to calculate the percent inhibition values based on DMSO and background controls. For dose-response analysis, percent inhibition data were plotted vs. compound concentrations, and IC50 values were determined from a 4-parameter robust fit model with the Prism software (GraphPad Software). Results were expressed as pIC50 (negative logarithm of IC50) and subsequently converted to pKi (negative logarithm of dissociation constant, Ki) using the Cheng-Prusoff equation.

Tyk2 = biological target: T2, Tyk2 (Homo sapiens, UniProt P29597); experiment: Biochemical Tyk2 kinase assay (LanthaScreen); settings: read-out: Tyk 2 (pKi) (converted)
T2 construct: GST; purchased Life Technologies
T2 sequence (P29597 whole entry): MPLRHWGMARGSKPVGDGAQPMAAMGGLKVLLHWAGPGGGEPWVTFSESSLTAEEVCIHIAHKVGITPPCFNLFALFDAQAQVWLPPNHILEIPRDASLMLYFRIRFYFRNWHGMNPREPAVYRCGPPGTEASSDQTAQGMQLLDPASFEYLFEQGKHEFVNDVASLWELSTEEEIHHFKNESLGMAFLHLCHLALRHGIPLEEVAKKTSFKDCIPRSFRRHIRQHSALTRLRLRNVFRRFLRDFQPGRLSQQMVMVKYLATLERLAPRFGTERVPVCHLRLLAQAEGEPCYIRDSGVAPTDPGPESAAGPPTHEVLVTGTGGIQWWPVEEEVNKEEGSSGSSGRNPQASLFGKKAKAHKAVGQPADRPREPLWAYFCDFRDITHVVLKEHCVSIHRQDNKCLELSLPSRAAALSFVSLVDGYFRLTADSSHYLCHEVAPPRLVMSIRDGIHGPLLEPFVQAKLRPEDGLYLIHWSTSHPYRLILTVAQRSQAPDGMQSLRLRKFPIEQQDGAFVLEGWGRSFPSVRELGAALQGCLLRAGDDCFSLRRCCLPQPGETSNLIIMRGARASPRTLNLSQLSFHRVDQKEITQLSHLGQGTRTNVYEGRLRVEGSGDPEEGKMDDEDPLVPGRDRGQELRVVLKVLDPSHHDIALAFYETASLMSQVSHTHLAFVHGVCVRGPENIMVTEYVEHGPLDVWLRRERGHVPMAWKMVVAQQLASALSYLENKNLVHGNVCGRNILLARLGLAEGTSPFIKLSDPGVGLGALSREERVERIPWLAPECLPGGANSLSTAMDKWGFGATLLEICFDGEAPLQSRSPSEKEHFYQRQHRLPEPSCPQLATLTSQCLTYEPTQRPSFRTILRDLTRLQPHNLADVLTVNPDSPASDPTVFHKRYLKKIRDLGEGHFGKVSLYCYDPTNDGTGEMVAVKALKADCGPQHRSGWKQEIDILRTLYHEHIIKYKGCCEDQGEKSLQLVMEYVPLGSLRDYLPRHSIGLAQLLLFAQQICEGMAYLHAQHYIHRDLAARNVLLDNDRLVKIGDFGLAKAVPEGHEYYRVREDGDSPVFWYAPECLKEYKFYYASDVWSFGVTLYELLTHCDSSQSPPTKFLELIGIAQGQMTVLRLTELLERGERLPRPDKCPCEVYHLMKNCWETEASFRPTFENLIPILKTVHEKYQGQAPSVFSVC
Description: as §1

[1] = system: IL-13-induced STAT6 phosphorylation in BEAS-2B cells; experiment: Assay 2: cellular JAK potency, IL-13-induced STAT6 phosphorylation in BEAS-2B cells; assay type: cell-based; settings: Homo sapiens, read-out: pIC50 for inhibition of IL-13 induced STAT6 phosphorylation (converted)
Description: Assay 2: Cellular JAK Potency Assay: Inhibition of IL-13-Induced STAT6 Phosphorylation in BEAS-2B Cells
The cellular potency assay for JAK inhibition was carried out by measuring interleukin-13 (IL-13, R&D Systems) induced STAT6 phosphorylation in BEAS-2B human lung epithelial cells (ATCC). The anti-STAT6 antibody (Cell Signaling Technologies) was conjugated to AlphaScreen acceptor beads (Perkin Elmer), while the anti-pSTAT6 (pTyr641) antibody (Cell Signaling Technologies) was biotinylated using EZ-Link Sulfo-NHS-Biotin (Thermo Scientific).
BEAS-2B cells were grown at 37° C. in a 5% CO2 humidified incubator in 50% DMEM/50% F-12 medium (Life Technologies) supplemented with 10% FBS (Hyclone), 100 U/mL penicillin, 100 μg/mL streptomycin (Life Technologies), and 2 mM GlutaMAX (Life Technologies). […] After a minimum of 2 h incubation, the assay plates were read on the EnVision plate reader. AlphaScreen luminescence signals were recorded and utilized to calculate the percent inhibition values based on DMSO and background controls.
For dose-response analysis, percent inhibition data were plotted vs. compound concentrations, and IC50 values were determined from a 4-parameter robust fit model with the Prism software. Results may also be expressed as the negative logarithm of the IC50 value, pIC50.

[2] = system: BEAS-2B human lung epithelial cells; assay type: cell-based; settings: 48 h
Description: Assay 3: Cytotoxicity Assay A CellTiter-Glo luminescent cell viability/cytotoxicity assay was carried out in BEAS-2B human lung epithelial cells (ATCC) under the normal growth condition. […] On day 1 of the assay, cells were seeded at a 500 cells/well density in white 384-well tissue culture plates (Corning) with 25 μL medium, and were allowed to adhere overnight in the incubator. On day 2 of the assay, 5 μL of medium containing dose-responses of test compounds was added, and incubated at 37° C. for 48 h. 30 μL of CellTiter-Glo detection solution (Promega) was subsequently added, mixed on an orbital shaker for 5 min, and incubated for additional 10 min before being read on the EnVision reader. Luminescence signals were recorded and percent DMSO control values were calculated. For dose-response analysis, percent DMSO control data were plotted vs. compound concentrations to derive dose-response curves by line connecting each data point. […] Results were expressed as the negative logarithm of the CC15 value, pCC15. […] The pCC15 for compound (I) was 5.36.

T1 sequence (P23458 whole entry): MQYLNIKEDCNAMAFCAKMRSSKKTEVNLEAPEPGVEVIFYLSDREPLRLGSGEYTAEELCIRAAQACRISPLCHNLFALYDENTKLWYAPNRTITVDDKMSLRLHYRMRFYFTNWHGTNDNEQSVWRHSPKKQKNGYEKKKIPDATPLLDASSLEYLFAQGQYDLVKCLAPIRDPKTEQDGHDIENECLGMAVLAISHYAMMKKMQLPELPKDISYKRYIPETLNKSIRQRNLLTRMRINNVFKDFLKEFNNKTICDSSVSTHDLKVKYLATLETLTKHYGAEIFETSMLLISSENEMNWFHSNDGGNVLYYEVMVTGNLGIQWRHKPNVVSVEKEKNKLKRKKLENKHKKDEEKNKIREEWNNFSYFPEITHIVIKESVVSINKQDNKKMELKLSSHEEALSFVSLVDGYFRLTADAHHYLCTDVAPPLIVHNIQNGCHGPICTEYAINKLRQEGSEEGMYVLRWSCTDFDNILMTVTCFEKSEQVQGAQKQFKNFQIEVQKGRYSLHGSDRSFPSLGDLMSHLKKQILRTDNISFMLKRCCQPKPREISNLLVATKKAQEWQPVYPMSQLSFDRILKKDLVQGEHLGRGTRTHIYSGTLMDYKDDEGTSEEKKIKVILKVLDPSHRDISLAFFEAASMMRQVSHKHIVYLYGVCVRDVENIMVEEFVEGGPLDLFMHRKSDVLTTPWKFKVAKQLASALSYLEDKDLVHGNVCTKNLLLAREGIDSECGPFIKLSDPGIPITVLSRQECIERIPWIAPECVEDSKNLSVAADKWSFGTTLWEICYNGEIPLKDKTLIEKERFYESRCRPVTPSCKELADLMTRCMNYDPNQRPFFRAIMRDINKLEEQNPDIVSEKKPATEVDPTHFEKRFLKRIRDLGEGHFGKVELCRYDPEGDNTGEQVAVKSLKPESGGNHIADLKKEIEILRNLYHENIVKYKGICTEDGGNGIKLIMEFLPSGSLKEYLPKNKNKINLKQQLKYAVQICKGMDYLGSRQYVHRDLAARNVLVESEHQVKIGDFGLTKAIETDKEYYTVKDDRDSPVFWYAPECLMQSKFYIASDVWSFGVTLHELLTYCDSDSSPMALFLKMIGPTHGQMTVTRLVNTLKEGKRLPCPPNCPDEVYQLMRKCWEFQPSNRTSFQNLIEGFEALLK

CCS(=O)(=O)N1[C@@H]2CCC[C@H]1C[C@H](N(C)c1nc(CO)c(F)c(Nc3cc(C)[nH]n3)n1)C2 [Compound (I), (2-(((1R,3s,5S)-9-(ethylsulfonyl)-9-azabicyclo[3.3.1]nonan-3-yl)(methyl)amino)-5-fluoro-6-((5-methyl-1H-pyrazol-3-yl)amino)pyrimidin-4-yl)methanol]
Ki (JAK1): 0.0631 nM
Ki (Tyk2): 0.126 nM
IC50 [1]: 3.16 nM
pCC15 [2]: 5.36
